{"source": "patent US20240417428A1", "about": "“POLYPEPTIDE FOR INHIBITING TRPM8 AND USE THEREOF” (ZHEJIANG UNIVERSITY, priority 2021, published 2024)", "key": {"Nav1.7": {"target": "T1, Nav1.7 (Homo sapiens, UniProt Q15858)", "T1 construct": "expressed in transfected cells; host or cells: HEK293T", "T1 sequence (Q15858 whole entry)": "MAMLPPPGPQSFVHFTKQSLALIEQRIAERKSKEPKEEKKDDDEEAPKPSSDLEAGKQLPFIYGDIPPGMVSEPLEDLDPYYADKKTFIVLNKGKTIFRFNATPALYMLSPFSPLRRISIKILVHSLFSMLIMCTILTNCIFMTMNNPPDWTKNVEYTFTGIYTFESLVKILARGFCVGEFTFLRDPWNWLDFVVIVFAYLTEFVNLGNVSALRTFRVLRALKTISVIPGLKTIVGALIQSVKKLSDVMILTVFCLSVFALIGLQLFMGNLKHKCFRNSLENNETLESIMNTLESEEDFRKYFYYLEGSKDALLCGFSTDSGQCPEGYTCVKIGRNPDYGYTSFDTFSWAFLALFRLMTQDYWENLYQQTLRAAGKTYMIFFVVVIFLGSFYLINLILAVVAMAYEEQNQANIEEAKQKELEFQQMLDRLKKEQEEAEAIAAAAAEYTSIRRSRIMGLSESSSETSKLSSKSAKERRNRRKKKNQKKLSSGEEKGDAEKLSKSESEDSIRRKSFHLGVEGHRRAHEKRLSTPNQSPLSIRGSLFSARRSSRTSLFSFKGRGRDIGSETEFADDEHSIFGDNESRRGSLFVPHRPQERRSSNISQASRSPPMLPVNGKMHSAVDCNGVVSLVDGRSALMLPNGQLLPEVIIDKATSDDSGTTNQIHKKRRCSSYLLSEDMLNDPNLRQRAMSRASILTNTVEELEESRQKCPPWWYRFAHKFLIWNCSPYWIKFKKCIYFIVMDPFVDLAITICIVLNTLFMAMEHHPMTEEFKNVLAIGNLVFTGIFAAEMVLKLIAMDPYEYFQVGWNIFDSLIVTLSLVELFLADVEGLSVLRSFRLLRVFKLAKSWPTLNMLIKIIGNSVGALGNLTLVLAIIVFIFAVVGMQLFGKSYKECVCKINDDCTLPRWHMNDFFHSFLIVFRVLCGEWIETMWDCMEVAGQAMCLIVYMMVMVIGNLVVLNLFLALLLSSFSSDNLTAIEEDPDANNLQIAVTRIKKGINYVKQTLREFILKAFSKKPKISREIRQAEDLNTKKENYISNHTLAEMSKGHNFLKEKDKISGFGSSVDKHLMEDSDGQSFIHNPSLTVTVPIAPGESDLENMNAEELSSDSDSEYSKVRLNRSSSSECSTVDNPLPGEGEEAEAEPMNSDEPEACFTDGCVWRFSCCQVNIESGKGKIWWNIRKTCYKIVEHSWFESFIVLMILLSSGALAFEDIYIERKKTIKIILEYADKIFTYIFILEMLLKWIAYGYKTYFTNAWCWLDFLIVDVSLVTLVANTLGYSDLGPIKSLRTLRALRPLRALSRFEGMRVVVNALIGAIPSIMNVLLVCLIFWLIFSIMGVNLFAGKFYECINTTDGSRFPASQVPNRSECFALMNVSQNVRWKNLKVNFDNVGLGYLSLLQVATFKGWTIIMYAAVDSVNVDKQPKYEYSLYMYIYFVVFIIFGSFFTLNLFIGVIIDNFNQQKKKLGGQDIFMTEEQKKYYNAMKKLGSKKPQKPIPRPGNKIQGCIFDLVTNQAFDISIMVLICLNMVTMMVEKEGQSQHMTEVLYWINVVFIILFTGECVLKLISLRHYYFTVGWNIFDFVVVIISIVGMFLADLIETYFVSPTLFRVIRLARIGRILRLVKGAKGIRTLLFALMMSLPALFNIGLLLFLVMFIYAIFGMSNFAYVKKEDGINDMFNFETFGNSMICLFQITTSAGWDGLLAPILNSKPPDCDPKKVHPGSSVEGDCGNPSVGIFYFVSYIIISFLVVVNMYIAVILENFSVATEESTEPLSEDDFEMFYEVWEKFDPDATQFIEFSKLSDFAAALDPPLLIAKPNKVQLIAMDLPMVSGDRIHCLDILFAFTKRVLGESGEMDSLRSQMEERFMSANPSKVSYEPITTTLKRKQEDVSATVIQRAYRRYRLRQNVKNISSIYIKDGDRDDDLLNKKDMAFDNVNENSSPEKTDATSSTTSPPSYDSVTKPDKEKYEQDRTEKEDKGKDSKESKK", "assay": "Electrophysiological recording of Nav1.7 sodium current", "type": "cell-based", "method": "(§1) HEK293T cells were cultured in Dulbecco's modified Eagle culture medium under a 37° C., 5% CO2 environment, 10% fetal bovine serum, penicillin (100 U/mL), and streptomycin ([…]) was needed to add into the culture medium. Transient transfection was conducted by using Lipo 2000 (Invitrogen) transfection kit and following the instruction manual.\n(§2) Electrophysiological experiment recordings were performed on the cells within 24˜48 h of transient transfections. Specifically, single channel electrophysiological recordings were performed within 8 h after transfection.\n(§3) Measurement of the cell currents was respectively performed in the whole-cell recording mode, inside-out recording mode or outside-out recording mode with a HEKA EPC10 amplifier. In the whole cell electrophysiological recordings, glass microelectrodes made of borosilicate material were fire-polished to a original electrode resistance of about 3-6 MΩ. Serial resistance was compensated by 60%. The whole cell electrophysiological recordings were performed at ±80 mV. For single channel electrophysiological recordings, glass microelectrodes were fire-polished to a higher resistance of 6-8 MΩ2. Current signal was sampled at 10 kHz and filtered at 2.9 kHz. Membrane potential of the cell membrane would be clamped at +80 mV. All electrophysiological recordings were performed at room temperature (22° C.) (the maximum variation is 1° C.). […]"}, "[1]": {"system": "oxaliplatin-induced cold allodynia", "assay": "Oxaliplatin-induced cold allodynia, acetone evaporating cold test", "type": "in vivo, mice", "conditions": "3.5 μg/20 μL intraplantar, day 10 after oxaliplatin", "method": "Adult male CD1 mice (6-8 weeks old) were used as experimental animals for behavioral experiments and primary cultures of DRG neurons. Mice were raised in the condition of 12 h light/12 h dark of light cycle with adequate standard chow and water. All animal protocols were approved by the Institutional Animal Care and Use Committee (IACUC) of Zhejiang University.\nAll of mice were habituated to the behavioral testing environment for 1-to-2 hours in 2-to-3 days before the behavioral testing. Single intraperitoneal (i.p.) injection of oxaliplatin (6 mg/kg body weight) was given to generate chemotherapy-induced neuropathic pain. Neuropathic pain behaviors were tested about 10 days after oxaliplatin injection.\nAcetone-induced evaporating cold test was used to assess the oxaliplatin-induced cold allodynia. 50 μL acetone was gently splashed to the hind-paw plantar of oxaliplatin-treated mice via a syringe attached with plastic tube. The time spent in withdrawing, flinching or licking the stimulated paw was recorded and blindly counted during 5 min after acetone treatment. The cold allodynia behavior of mice was respectively measured on day 10 pre- or post-treatment with oxaliplatin, Vehicle or 3.5 μg/20 μL DeC-1.2 was intraplantarly injected to assess its analgesic effect on oxaliplatin-induced allodynia."}, "TRPV1": {"target": "T2, TRPV1 (Homo sapiens, UniProt Q8NER1)", "T2 construct": "expressed in transfected cells; host or cells: HEK293T", "assay": "Electrophysiological recording, ligand activation of TRPV1", "type": "cell-based", "method": "as §1, §2, §3"}, "TRPM8": {"target": "TRPM8 (Mus musculus, UniProt Q8R4D5)", "sequence (Q8R4D5 whole entry)": "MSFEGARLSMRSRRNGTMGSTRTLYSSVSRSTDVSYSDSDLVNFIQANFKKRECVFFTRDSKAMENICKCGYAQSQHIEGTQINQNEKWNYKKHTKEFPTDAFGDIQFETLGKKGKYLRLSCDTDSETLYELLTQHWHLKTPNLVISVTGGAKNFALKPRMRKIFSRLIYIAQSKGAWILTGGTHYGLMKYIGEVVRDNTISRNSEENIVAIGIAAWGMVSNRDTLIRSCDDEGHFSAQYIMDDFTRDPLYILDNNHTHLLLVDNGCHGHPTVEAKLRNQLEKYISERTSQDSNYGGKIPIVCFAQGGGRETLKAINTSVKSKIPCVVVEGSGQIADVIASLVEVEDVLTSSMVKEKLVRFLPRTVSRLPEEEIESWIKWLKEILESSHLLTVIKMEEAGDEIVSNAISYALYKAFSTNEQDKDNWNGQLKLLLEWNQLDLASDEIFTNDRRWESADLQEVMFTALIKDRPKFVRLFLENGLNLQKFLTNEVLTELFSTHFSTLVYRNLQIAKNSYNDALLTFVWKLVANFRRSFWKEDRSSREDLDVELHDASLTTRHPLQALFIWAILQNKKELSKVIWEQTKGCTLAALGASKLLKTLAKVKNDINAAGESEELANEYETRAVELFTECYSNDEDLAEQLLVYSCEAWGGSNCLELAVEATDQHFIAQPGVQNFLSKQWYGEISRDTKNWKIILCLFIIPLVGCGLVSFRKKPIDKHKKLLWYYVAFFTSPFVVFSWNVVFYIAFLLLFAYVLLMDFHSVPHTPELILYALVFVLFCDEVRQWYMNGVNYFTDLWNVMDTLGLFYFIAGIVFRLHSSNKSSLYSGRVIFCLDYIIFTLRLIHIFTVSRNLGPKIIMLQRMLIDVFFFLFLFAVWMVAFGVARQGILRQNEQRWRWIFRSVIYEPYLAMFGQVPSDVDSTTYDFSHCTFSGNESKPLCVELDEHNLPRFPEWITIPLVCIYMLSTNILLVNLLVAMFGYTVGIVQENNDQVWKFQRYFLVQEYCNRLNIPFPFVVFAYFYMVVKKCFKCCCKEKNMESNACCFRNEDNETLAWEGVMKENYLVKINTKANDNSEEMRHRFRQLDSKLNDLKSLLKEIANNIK", "assay": "Inside-out single-channel recording of cold-activated TRPM8 (16° C.) at +80 mV", "type": "cell-based", "set-up": "expressed in transfected cells; host or cells: HEK293T", "conditions": "DeC-1.2 100 μM at 16° C.", "method": "as §1, §2\nas §3, with “mV.” for “mV. All electrophysiological recordings were performed at room temperature (22° C.) (the maximum variation is 1° C.).”\nThere were different bath and pipette solutions prepared for different ion channels current measurement. […]"}, "Nav1.5": {"target": "T3, Nav1.5 (Homo sapiens, UniProt Q14524)", "T3 construct": "expressed in transfected cells; host or cells: HEK293T", "T3 sequence (Q14524 whole entry)": "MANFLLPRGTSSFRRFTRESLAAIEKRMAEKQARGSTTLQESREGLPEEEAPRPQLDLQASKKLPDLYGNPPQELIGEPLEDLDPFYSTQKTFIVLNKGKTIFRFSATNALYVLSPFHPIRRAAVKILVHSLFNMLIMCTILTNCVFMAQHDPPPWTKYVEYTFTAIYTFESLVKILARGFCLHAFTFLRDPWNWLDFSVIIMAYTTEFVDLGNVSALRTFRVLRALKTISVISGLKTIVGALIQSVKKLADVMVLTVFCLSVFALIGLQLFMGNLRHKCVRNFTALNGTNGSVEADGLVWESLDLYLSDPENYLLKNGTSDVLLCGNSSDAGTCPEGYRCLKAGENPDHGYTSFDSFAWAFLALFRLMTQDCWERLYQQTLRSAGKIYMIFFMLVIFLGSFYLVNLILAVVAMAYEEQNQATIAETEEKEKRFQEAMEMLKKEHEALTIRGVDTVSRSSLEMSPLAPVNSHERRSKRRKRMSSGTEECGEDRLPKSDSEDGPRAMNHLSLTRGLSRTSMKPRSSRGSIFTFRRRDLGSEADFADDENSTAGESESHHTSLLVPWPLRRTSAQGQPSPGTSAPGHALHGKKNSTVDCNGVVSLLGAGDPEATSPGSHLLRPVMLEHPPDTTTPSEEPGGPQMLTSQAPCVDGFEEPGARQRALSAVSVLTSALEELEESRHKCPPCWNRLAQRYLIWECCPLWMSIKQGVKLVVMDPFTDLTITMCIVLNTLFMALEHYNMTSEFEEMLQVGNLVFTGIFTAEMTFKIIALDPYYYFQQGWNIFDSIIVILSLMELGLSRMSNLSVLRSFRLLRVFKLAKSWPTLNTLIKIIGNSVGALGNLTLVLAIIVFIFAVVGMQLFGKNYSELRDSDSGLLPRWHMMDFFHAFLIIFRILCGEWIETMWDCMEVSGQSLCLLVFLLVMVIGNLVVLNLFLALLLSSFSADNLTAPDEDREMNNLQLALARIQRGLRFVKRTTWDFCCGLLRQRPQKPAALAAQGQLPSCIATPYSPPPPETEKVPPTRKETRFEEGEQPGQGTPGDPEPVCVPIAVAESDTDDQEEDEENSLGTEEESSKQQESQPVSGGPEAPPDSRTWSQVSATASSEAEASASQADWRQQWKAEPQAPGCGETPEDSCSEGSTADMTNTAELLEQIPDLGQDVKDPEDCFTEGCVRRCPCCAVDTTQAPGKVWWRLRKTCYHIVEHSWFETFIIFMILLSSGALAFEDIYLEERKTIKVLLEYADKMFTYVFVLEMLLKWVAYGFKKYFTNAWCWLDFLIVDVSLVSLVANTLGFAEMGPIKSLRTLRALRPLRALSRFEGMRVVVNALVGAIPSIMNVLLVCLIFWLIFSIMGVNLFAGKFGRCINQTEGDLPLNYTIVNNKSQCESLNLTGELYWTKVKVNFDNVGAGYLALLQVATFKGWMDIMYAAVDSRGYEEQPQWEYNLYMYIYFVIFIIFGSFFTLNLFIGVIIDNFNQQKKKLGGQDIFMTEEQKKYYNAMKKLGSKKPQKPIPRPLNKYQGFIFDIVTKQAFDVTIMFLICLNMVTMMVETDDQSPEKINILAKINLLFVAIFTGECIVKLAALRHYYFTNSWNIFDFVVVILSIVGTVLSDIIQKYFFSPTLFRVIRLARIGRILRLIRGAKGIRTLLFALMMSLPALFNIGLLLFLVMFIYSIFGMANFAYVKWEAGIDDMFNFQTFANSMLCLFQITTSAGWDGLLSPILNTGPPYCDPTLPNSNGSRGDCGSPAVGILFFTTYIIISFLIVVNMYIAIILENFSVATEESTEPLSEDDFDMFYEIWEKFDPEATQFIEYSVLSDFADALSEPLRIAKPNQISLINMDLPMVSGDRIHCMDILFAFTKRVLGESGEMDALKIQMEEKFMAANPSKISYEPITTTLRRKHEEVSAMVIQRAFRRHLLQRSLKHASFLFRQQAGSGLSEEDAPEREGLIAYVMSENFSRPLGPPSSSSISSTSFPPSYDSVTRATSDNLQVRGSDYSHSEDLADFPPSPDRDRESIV", "assay": "Electrophysiological recording of Nav1.5 sodium current", "type": "cell-based", "method": "as §1, §2, §3"}}, "note": "“Also recorded” adds a separate entry of the source. Where a SMILES comes first, the peptide text is derived from it.", "data": [{"compound": "C[C@@H]1NC(=O)[C@H](CCCNC(=N)N)NC(=O)[C@H](CC(=O)O)NC(=O)[C@H](CCCNC(=N)N)NC(=O)[C@H](CCCNC(=N)N)NC(=O)[C@@H](N)CSSC[C@@H](C(=O)O)NC(=O)[C@H](CCCNC(=N)N)NC(=O)[C@H](CCC(N)=O)NC(=O)[C@H](CCCNC(=N)N)NC(=O)[C@H](Cc2ccc(O)cc2)NC(=O)[C@H](Cc2c[nH]cn2)NC(=O)[C@H](CCCNC(=N)N)NC1=O", "note": "[DeC-1.2, CRRDRARHYRQRC] (HELM PEPTIDE1{C.R.R.D.R.A.R.H.Y.R.Q.R.C}$PEPTIDE1,PEPTIDE1,1:R3-13:R3$$$V2.0; N-terminus and C-terminus assumed)", "values": [{"measurement": "IC50", "setting": "Nav1.7", "value": "> 100", "unit": "µM"}, {"measurement": "inhibition of Nav channels", "setting": "Nav1.7; Nav1.7", "value": "none of the TRP channels and Nav channels were inhibited"}, {"measurement": "cold pain behavior induced by acetone evaporation (acetone score)", "setting": "[1]", "value": "significantly improved the cold pain behavior"}, {"measurement": "IC50", "setting": "TRPV1", "value": "> 100", "unit": "µM"}, {"measurement": "inhibition of ligand activation of TRPV1", "setting": "TRPV1; DeC-1.2 5 μM", "value": "failed to inhibit"}, {"measurement": "effect on open probability of cold-activated TRPM8", "setting": "TRPM8", "value": "does not change significantly; also recorded: did not decrease the open probability"}, {"measurement": "effect on single-channel conductance of cold-activated TRPM8", "setting": "TRPM8", "value": "does not change significantly; also recorded: did not further reduce the single-channel conductance"}, {"measurement": "IC50", "setting": "Nav1.5", "value": "> 100", "unit": "µM"}, {"measurement": "inhibition of Nav channels", "setting": "Nav1.5; Nav1.5", "value": "none of the TRP channels and Nav channels were inhibited"}]}]}
